Experimental data as given in patent US12527833B2, “Pharmaceutical composition made from hydrophobic phytochemicals dispersed in sesame oil to enhance bioactivity” (ARJUNA NATURAL PVT. LTD., priority 2017, dated 2026).

System: Acute Musculoskeletal Pain
Test: Randomized active controlled study of BSC-4 in adult patients with acute musculoskeletal pain (NRS, PRS, PPR, MPR, PGIC)
Assay type: in vivo, human
Excerpt: A Randomized Active Controlled Study to Assess the Efficacy of Sesame Oil Loaded with Boswellia Extract and Curcuminoid Composition (BSC-4) in Adult Patients with Acute Musculoskeletal Pain. Sample size for the study: 88 Subjects were randomized with 1:1 ratio of male and female in each group. Subject selection—Subjects were selected from the screening site who were ready to give a voluntary informed consent and who meets study inclusion criteria. • 1. Adult patient, Male or female between 18-65 years of age. • 2. A score of 5 or above on the Numerical Rating Scale. • 3. Patients having acute musculoskeletal pain which occurred within 24 hours before presentation e.g. headache musculoskeletal injuries, myalgia, neck pain, limb pain, low back pain, joint pain, widespread musculoskeletal pain, painful uncomplicated acute soft tissue injury of the upper or lower extremity, including acute injuries of ligaments, tendons, or muscles (including Grade 1), not requiring admittance to hospital. • 4. Willing to give voluntary informed consent. Visit 1, randomization; subject were provided BSC-4 or Paracetamol as per the pre-documented randomization list accessed only by pharmacist. Patients were entering the NRS, PRS, and PGIC in the diary before and after 2 hour of taking the dose. Follow up calls were made over phone for patents compliance to treatment, diary completion. The follow up on day 3 the patient were reminded to bring the diary for review and bottle for IP accountability at the next visit. Visit 2, Physical examination, vitals, and patient diary were checked. Post dose (2 hours) pain intensity using NRS, pain relief using categorical PRS, and patient's global impression of change (PGIC) were recoded. Visit 3, next visit on 6th day from the visit 1, Patients entered the NRS, PRS, and PGIC in the diary before and after 2 hrs of taking the dose. Follow up calls were made over phone for their compliance to treatment, diary completion. The follow up on day 6 the patient were reminded to bring the diary for review and bottle for IP accountability at the next visit. Physical examination, vitals, and patient diary were checked. Post dose (2 hours) pain intensity using NRS, pain relief using categorical PRS, and patient's global impression of change (PGIC) were recorded. The NRS is an 11-point scales in which 0 represents ‘no pain’ and 10 represents the worst pain possible. The patient were asked to rate their pain intensity as a number from 0 to 10. Alternatively, for better conception it may be explained as below. The NRS were recorded on screening and those patients who have 5 or above score only were enrolled into the study. After the first dose the patient were give the pain intensity rating every 30 minutes up to 6 hours post dose for calculating SPID 6 hrs. The NRS was included in the diary and the patient was required to give the pain intensity every morning before taking the dose and 2 hrs after dose until the end of the study. The average of the recorded data is provided in a graphical form in FIG. 7 (b). The average percentage change of patents when they visited the centre on day 3 and day 7 is provided below. The pain relief scale is a categorical scale having a positive progression from ‘No relief’ to ‘complete relief’. After the first dose the patient rated the pain relief every 30 minutes up to 6 hours for the assessment of Total pain relief 6 hours. The average pain relief score for the 6 hours test was recorded and represented in graphical form in FIG. 8 (a). The pain relief scale was included in the diary and the patient was required to give the pain relief every morning before taking the dose and 2 hours after dose until the end of the study. The average pain relief score for the seven days test was recorded in diary and represented in graphical form in FIG. 8 (b). After dosing the two stop watches were given to the patient. The patient had to stop one of the watches when they felt relief from pain. […]

Question: Which “NRS score in six hours” value (FIG. 7(a), 0-10 scale, baseline around 6) does the source give for CC(=O)Nc1ccc(O)cc1 [Paracetamol] here?
Answer: 2

Question: What about the “NRS score by the end of 7th day” value (FIG. 7(b), 0-10 scale, baseline close to 6) of the same molecule?
Answer: ~1

Question: And the “PRS score in six hours” value (FIG. 8(a), scale 1 No Relief to 5 Complete Relief, baseline around 1)?
Answer: 3

Question: And the “PRS score by the end of 7th day” value (FIG. 8(b), scale 1-5, baseline close to 1)?
Answer: ~3

Question: What about the “Percentage change in pain intensity at 6 hours” value (NRS, 6 hours after first dose) of the same molecule?
Answer: 72.1%

Question: What about the “Percentage change in pain intensity in 7 days, day 3” value (NRS, day 3) of the same molecule?
Answer: 24.8%

Question: What about the “Percentage change in pain intensity in 7 days, day 7” value (NRS, day 7) of the same molecule?
Answer: 83.62%

Question: What about the “Percentage change in pain relief at 6 hours” value (PRS, 6 hours after first dose, threshold reached by the n patients in the same cell) of the same molecule?
Answer: > 75%

Question: And the “Number of patients (n) with the stated percentage change in pain relief at 6 hours” value (PRS, 6 hours, of n = 44 per group, >75% change)?
Answer: 30

Question: And the “Number of patients (n) with the stated percentage change in pain relief, Day 3” value (PRS, Day 3, of n = 44 per group, >50% change)?
Answer: 20

Question: What about the “Percentage change in pain relief, Day 3” value (PRS, Day 3, threshold reached by the n patients in the same cell) of the same molecule?
Answer: > 50%

Question: And the “Number of patients (n) with the stated percentage change in pain relief, Day 7” value (PRS, Day 7, of n = 44 per group, >75% change)?
Answer: 37

Question: And the “Percentage change in pain relief, Day 7” value (PRS, Day 7, threshold reached by the n patients in the same cell)?
Answer: > 75%

Question: What about the “Meaningful pain relief” value (average time to meaningful pain relief (MPR), censored at 6 hours) of the same molecule?
Answer: 4.51 h

Question: What about the “Perceptible pain relief” value (average time to perceptible pain relief (PPR), stop watch) of the same molecule?
Answer: 2.62 h

Question: And the “PGIC score, Day 2” value (scale 1 Very Much Improved to 7 Very Much Worse, Day 2)?
Answer: 3

Question: And the “PGIC score, Day 3” value (scale 1 Very Much Improved to 7 Very Much Worse, Day 3)?
Answer: 3

Question: What about the “PGIC score, Day 4” value (scale 1 Very Much Improved to 7 Very Much Worse, Day 4) of the same molecule?
Answer: 3

Question: What about the “PGIC score, Day 5” value (scale 1 Very Much Improved to 7 Very Much Worse, Day 5) of the same molecule?
Answer: 3

Question: And the “PGIC score, Day 6” value (scale 1 Very Much Improved to 7 Very Much Worse, Day 6)?
Answer: 3

Question: What about the “PGIC score, Day 7” value (scale 1 Very Much Improved to 7 Very Much Worse, Day 7) of the same molecule?
Answer: 2
